# Where a name gives a salt, the structure may show the parent alone. Marks after values point to notes of the source that are not given here.
# Assays:
# [1] = 20° C.; cited from earlier work
# [2] = Solubility of exemplary therapeutic agents in organic solvents
# Description: In this context, the solubility is indicated as the weight of the dissolved substance (the solute) per volume of the solvent (i.e. the volume of solvent added to the solute).
Solubility ([2]; solvent Acetone),Solubility ([2]; solvent Benzylalcohol),Solubility ([2]; solvent DMSO),Solubility ([2]; solvent EMK),Solubility ([2]; solvent Ethanol),Solubility ([2]; solvent Ethyl acetate),Solubility ([2]; solvent Ethyl formate),Solubility ([2]; solvent Methyl acetate),Solubility ([2]; solvent NMP),Solubility ([2]; solvent THF),Compound,Solubility in water [1],other results
,,,,,,,,,,CCCCOC=O [Butyl formate],slow decomposition,
,,,,,,,,,,ClCCl [Dichlormethan],20 g/L,
,,,,,,,,,,CC(C)=O [Aceton],soluble,
,,,,,,,,,,CCCOC=O [n- Propyl formate],28 g/L,
,,,,,,,,,,CC(C)OC=O [Isopropyl formate],slow decomposition,
,,,,,,,,,,CCOC(C)=O [Ethyl acetate],85.3 g/L,
,,,,,,,,,,COC(=O)OC [Dimethyl Carbonate],139 g/L,
,,,,,,,,,,CC(=O)OC(C)(C)C [tert. Butyl acetate],insoluble,
,,,,,,,,,,CC(=O)C(C)C [Methylisopropylketone],6 g/L,
soluble,soluble,soluble,soluble,soluble,soluble,soluble,soluble,soluble,soluble,"CN1C[C@H]2c3ccccc3Oc3ccc(Cl)cc3[C@@H]2C1 (relative stereo) [Asenapine maleate, (3aRS,12bRS)-rel-5-Chloro-2,3,3a,12b-tetrahydro-2-methyl-1H-dibenz[2,3:6,7]oxepino[4,5-c]pyrrole]",,Solubility ([2]; solvent Dimethylcarbonate): soluble; Solubility ([2]; solvent Glycofurol): soluble; Solubility ([2]; solvent Iso propanol): non-soluble; Solubility ([2]; solvent Isopropyl acetate): non-soluble; Solubility ([2]; solvent Isopropyl formate): soluble
non-soluble,soluble,soluble,non-soluble,non-soluble,non-soluble,non-soluble,non-soluble,soluble,soluble,"OCCOCCN1CCN(C2=Nc3ccccc3Sc3ccccc32)CC1 [Quetiapine fumarate, 2-(2-(4-dibenzo[b,f][1,4]thiazepine-11-yl-1-piperazinyl)ethoxy)ethanol]",,Solubility ([2]; solvent Glycofurol): soluble; Solubility ([2]; solvent Triacetin): non-soluble
soluble,soluble,soluble,soluble,non-soluble,soluble,soluble,soluble,soluble,soluble,"CC(C)c1nc(N(C)S(C)(=O)=O)nc(-c2ccc(F)cc2)c1/C=C/[C@@H](O)C[C@@H](O)CC(=O)O [Rosuvastatin Ca, (3R,5S,6E)-7-[4-(4-fluorophenyl)-2-(N-methylmethanesulfonamido)-6-(propan-2-yl)pyrimidin-5-yl]-3,5-dihydroxyhept-6-enoic acid]",,Solubility ([2]; solvent Glycofurol): soluble; Solubility ([2]; solvent Isopropyl acetate): non-soluble; Solubility ([2]; solvent Isopropyl formate): non-soluble; Solubility ([2]; solvent Triacetin): non-soluble
,,,,,,,,,,COC(C)=O [Methyl acetate],319 g/L,
,,,,,,,,,,CCCOC(C)=O [n-Propyl acetate],21.2 g/L,
non-soluble,non-soluble,soluble,non-soluble,non-soluble,non-soluble,non-soluble,non-soluble,soluble,non-soluble,"O=C(c1ccc(OCCN2CCCCC2)cc1)c1c(-c2ccc(O)cc2)sc2cc(O)ccc12 [Raloxifene HCl, [6-hydroxy-2-(4-hydroxyphenyl)-benzothiophen-3-yl]-[4-[2-(1-piperidyl)ethoxy]phenyl]-methanone]",,Solubility ([2]; solvent Benzyl formate): non-soluble; Solubility ([2]; solvent Dichloromethane): non-soluble; Solubility ([2]; solvent Isopropyl acetate): non-soluble; Solubility ([2]; solvent Isopropyl formate): non-soluble; Solubility ([2]; solvent Propyl formate): non-soluble
soluble,soluble,soluble,soluble,non-soluble,soluble,soluble,soluble,soluble,soluble,O=C1CCc2ccc(OCCCCN3CCN(c4cccc(Cl)c4Cl)CC3)cc2N1 [Aripiprazole],,Solubility ([2]; solvent Benzyl benzoate): soluble; Solubility ([2]; solvent Glycofurol): soluble; Solubility ([2]; solvent Isopropyl acetate): non-soluble; Solubility ([2]; solvent Isopropyl formate): soluble; Solubility ([2]; solvent Triacetin): non-soluble
,,,,,,,,,,CCOC=O [Ethyl formate],105*** g/L,

Compound,Solubility ([2]; solvent Acetone),Solubility ([2]; solvent Benzylalcohol),Solubility ([2]; solvent DMSO),Solubility ([2]; solvent EMK),Solubility ([2]; solvent Ethanol),Solubility ([2]; solvent Ethyl acetate),Solubility ([2]; solvent Ethyl formate),Solubility ([2]; solvent Methyl acetate),Solubility ([2]; solvent NMP),Solubility ([2]; solvent THF),Solubility in water [1],other results
"CNCC[C@H](Oc1cccc2ccccc12)c1cccs1 [Duloxetine HCl, (+)-(S)—N-Methyl-3-(naphthalen-1-yloxy)-3-(thiophen-2-yl)propan-1-amine]",non-soluble,soluble,soluble,non-soluble,soluble,non-soluble,non-soluble,non-soluble,soluble,soluble,,Solubility ([2]; solvent Benzyl benzoate): non-soluble; Solubility ([2]; solvent Glycofurol): soluble; Solubility ([2]; solvent Methyl benzoate): non-soluble; Solubility ([2]; solvent Triacetin): non-soluble

# Reference: patent US20160303102A1, “PROCESS FOR THE PRODUCTION OF DRUG FORMULATIONS FOR ORAL ADMINISTRATION” (Alrise Biosystems GmbH, priority 2013, published 2016)
